Laboratory results taken from article PMC5301048, “Selection and early clinical evaluation of the brain‐penetrant 11β‐hydroxysteroid dehydrogenase type 1 (11β‐HSD1) inhibitor UE2343 (Xanamem™)” (British Journal of Pharmacology, 2017).
Like-named read-outs stand apart in the source and are kept apart here.

Assays:
[1] = Clinical safety and tolerability in healthy subjects; assay type: in vivo, human
Procedure: A double‐blind, randomized, placebo‐controlled single ascending dose study was carried out at Simbec Research Ltd, Merthyr Tydfil, UK. Each cohort consisted of six healthy male subjects and two females of non‐child bearing potential. Two male ‘dose leader’ subjects (1 active : 1 placebo) were dosed first in each cohort. The remainder of the cohort (5 active : 1 placebo) were dosed 24 h later. Dose cohorts were 2, 5, 10, 18, 25 and 35 mg. Safety, pharmacokinetic and pharmacodynamic assessments were made at pre‐determined time‐points during each part of the study. Dose escalation was dependent upon satisfactory review of the blinded safety (up to Day 6) and pharmacokinetic (up to 24 h post‐dose) data from the preceding cohort.
A double‐blind, randomized, placebo‐controlled multiple ascending dose study was carried out at Linear Clinical Research Ltd, Nedlands, Australia. Each cohort consisted of eight healthy male subjects. Each subject received UE2343 or placebo twice daily (b.i.d ) (12 hourly) in the fed state for 9 days (Day 1 to Day 9) and once on the morning of Day 10 (19 doses in total). Dose cohorts were 10, 20 and 35 mg. Dose escalation and selection was dependent upon satisfactory review of the blinded safety (up to Day 17 ± 2) and plasma pharmacokinetics (up to Day 12) data from the preceding cohort. Safety, pharmacokinetic and pharmacodynamic assessments were made at pre‐determined time‐points during each part of the study.
(§1) A non‐randomized, open label, multiple dose phase I study to determine the pharmacokinetic parameters of UE2343 in CSF was carried out at Linear Clinical Research Ltd, Nedlands, Australia. Four healthy male subjects each received 35 mg UE2343 b.i.d (12 hourly) fed (30 min after the start of a standard meal) for 3 days (Day 1 to Day 3) and once on the morning of Day 4 (seven doses in total). Plasma pharmacokinetic samples were taken from each subject on Day 1 and Day 4. A single CSF sample was taken from each subject at 5 h post‐final dose on Day 4, corresponding to the plasma Tmax (time to maximum plasma concentration).
(§2) Laboratory evaluation of clinical safety parameters was carried out using standard validated methods. Measurement of plasma pharmacodynamic markers [adrenocorticotropic hormone (ACTH), cortisol, 4‐androstenedione, testosterone and dehydroepiandrosterone sulphate (DHEA‐s)] was carried out using commercially available kits. Each method was fully validated prior to analysis. Urinary steroid metabolites were measured according to established methods (Boonen et al., 2013). UE2343 levels in plasma, urine and CSF was determined by LC–MS/MS using fully validated methods.

[2] = molecular target: T1, human 11β‐HSD1 (Homo sapiens, UniProt P28845); test: Inhibition of human 11β-HSD1 in stably transfected HEK293 cells; assay type: cell-based
T1 construct: a construct containing the full‐length gene coding for the human 11β‐HSD1 enzyme; expressed in transfected cells; host or cells: HEK293
Procedure: Inhibition of human 11β‐HSD1 was determined in HEK293 cells stably transfected with a construct containing the full‐length gene coding for the human 11β‐HSD1 enzyme according to the protocol described by Sooy et al., 2010.

[3] = Microsomal stability, rat liver microsomes; assay type: in vitro ADME; conditions: mean ± SD [n]
Procedure: Microsomal stability was determined using pooled human, rat or dog liver microsomes according to the method described in WO2011135276 (Webster et al., 2011a).

[4] = Plasma protein binding, human plasma; assay type: in vitro ADME
Procedure: Plasma protein binding was determined using pooled human plasma according to the method described in WO2011135276 (Webster et al., 2011a).

[5] = Plasma protein binding, dog plasma; assay type: in vitro ADME; conditions: mean ± SD [n]
[6] = CSF study, plasma and CSF pharmacokinetics; assay type: in vivo; conditions: human; for Tmax: median (range); for Kp at 5 h / concentration at 5 h / Cmax / half-life / AUC(0-t): 35 mg; for concentration at 5 h: CSF; for AUC(0-t): read-out: AUC0–12h
Procedure: as §1, §2
The data and statistical analysis comply with the recommendations on experimental design and analysis in pharmacology (Curtis et al., 2015). Levels of probability, P < 0.05 were deemed to constitute the threshold for statistical significance. Pharmacokinetic parameters, except Tmax (time of maximum observed drug concentration), are given as mean ± coefficient of variation (CV%). Tmax is given as median ± range. For each of the pharmacodynamic parameters [ACTH, cortisol, adrenal androgens, tetrahydrocortisols (THFs)/tetrahydrocortisone (THE) ratio], the maximum % change from baseline for each subject was subjected to ANOVA. For selected data, an additional covariate factor for the baseline was also included in the ANOVA/analysis of covariance (ANCOVA) model. Associated P‐values <0.05 for each comparison have been presented.

[7] = multiple ascending dose study, 24 subjects (active and placebo)
[8] = multiple ascending dose study, in words
[9] = male, plasma, oral, 35 mg b.i.d, Day 1, mean (CV%)
[10] = male, plasma, oral, 35 mg b.i.d, Day 4, mean (CV%)

T1 sequence (P28845 whole entry): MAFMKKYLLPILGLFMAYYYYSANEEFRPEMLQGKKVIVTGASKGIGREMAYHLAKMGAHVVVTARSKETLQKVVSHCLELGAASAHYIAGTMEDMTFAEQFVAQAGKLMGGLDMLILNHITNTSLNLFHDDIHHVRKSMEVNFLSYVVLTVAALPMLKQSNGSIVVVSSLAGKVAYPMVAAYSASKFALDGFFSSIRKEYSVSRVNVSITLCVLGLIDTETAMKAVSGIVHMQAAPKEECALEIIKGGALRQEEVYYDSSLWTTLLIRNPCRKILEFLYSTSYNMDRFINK

## O=C(c1csc(-c2cn[nH]c2)c1)N1C2CCC1CC(O)(c1ncccn1)C2 (stereo not shown) [compound 4]
[1]; 2 to 35 mg q.d and 10 to 35 mg b.i.d, in words
  safety and tolerability: safe and well tolerated
[1]; CSF study, 35 mg b.i.d, in words
  intensity of TEAEs: mild to moderate
[1]; CSF study, four subjects, in words
  increased alanine aminotransferase, subjects: a single subject
[1]; [7]
  diarrhoea, subjects: 2/24
  headache (most common TEAE), subjects: 7/24
  thrombophlebitis, subjects: 3/24
[1]; [8]
  intensity of TEAEs: mild or moderate
  serious TEAEs or TEAEs leading to withdrawal: No serious TEAEs
[1]; single ascending dose study
  number of subjects with ≥1 TEAEs: 9
[2]; HEK293 cell IC50 in ng·mL^−1, read-out: IC50 value (11β‐HSD1) expressed as mass concentration (converted)
  IC50: 23.6 nM
[2]; HEK293 cells, mean ± SD [n], read-out: Human 11β‐HSD1 IC50 in HEK293 cells
  IC50: 24 ± 15 nM
[3]
  Liver microsomal stability (% parent at 30 min), rat: 74 ± 1 [3] % parent at 30 min
[4]; human plasma, mean ± SD [n]
  Plasma protein binding (% unbound), human: 30 ± 2 [2] % unbound
[4]; human, pooled human plasma, read-out: bound to plasma proteins (converted)
  fraction unbound: 0.3
[5]
  Plasma protein binding (% unbound), dog: 44 ± 0 [1] % unbound
[6]; 35 mg b.i.d, Day 4, 5 h post-dose, mean (CV%), listed as UE2343
  CCSF, 5h (concentration in CSF): 69.8 (44%) ng·mL^−1
[6]; 35 mg b.i.d, Day 4
  Tmax: 5.1 (3–5) h
[6]; 35 mg b.i.d, Day 4 vs Day 1
  extent of accumulation in plasma after repeated dosing: 3.3 fold
[6]; 35 mg b.i.d, Days 1 and 4
  time post‐dose at which mean Cmax was reached: 5 h
[6]; 35 mg twice daily, in words
  CSF concentration relative to IC50 at Cmin: more than fivefold
[6]; 35 mg twice daily, in words, listed as UE2343
  CSF concentration relative to IC50 at Cmax: up to ninefold greater
[6]; male, CSF (relative to free plasma), oral, 35 mg b.i.d, Day 4, read-out: CSF levels as % of the free plasma levels, range
  Kp at 5 h: 0.25 to 0.4
[6]; male, CSF (relative to free plasma), oral, 35 mg b.i.d, at plasma Cmax on Day 4, read-out: mean CSF levels as % of the free plasma levels
  Kp at 5 h: 0.33
[6]; male, CSF (relative to total plasma), oral, 35 mg b.i.d, Day 4, read-out: CSF concentration as % of simultaneous total plasma levels, range
  Kp at 5 h: 0.0746 to 0.119
[6]; male, CSF (relative to total plasma), oral, 35 mg b.i.d, at plasma Cmax on Day 4, read-out: mean CSF levels as % of the total plasma levels
  Kp at 5 h: 0.1
[6]; male, oral, 35 mg b.i.d, Day 4, 5 h post-dose, mean (CV%), read-out: CCSF, 5h (concentration in CSF)
  concentration at 5 h: 69.8 ng/mL
[6]; male, oral, 35 mg b.i.d, Day 4, 5 h post-dose, read-out: concentration in the CSF, range over subjects
  concentration at 5 h: 41.2 to 99.9 ng/mL
[6]; [9]
  Cmax: 235 ng/mL
  half-life: 6.24 h
  AUC(0-t): 1710 ng·h/mL
[6]; [10]
  Cmax: 708 ng/mL
  half-life: 8.97 h
  AUC(0-t): 5670 ng·h/mL
[6]; male, plasma, oral, 35 mg b.i.d, Day 1, read-out: Tmax
  Tmax: 5.1 h
